Measured values reported in patent publication US10596169B2, “Cancer treatment with combination of plinabulin and taxane” (BeyondSpring Inc., priority 2013, dated 2020).

How the values were obtained:
[1] = tested on: MV522 human non-small cell lung tumor xenograph model; experiment: Example 1: MV522 xenograft, NPI-2358 single agent and with docetaxel (TGI/TGD); format: in vivo, athymic nu/nu mice
Procedure: In vivo evaluation of plinabulin (NPI-2358) as a single agent and in combination with docetaxel in the MV522 human non-small cell lung tumor xenograph model in athymic nu/nu mice
The objective of the example was to determine potential additive or synergistic effects of plinabulin in combination with docetaxel in the MV522 model by exploring the scheduling of the drug combination explored by administering one of the agents 2 hours after the first drug was given. Significant endpoints for this experiment included mean tumor growth inhibition (TGI) or regression, tumor growth delay (TGD) in large tumor, weight loss, and mortality.
(§1) Female nude mice (Hsd: Athymic Nude-Foxn1^nu) between 5 and 6 weeks of age weighing approximately 20 grams were obtained from Harlan, Inc. (Madison, Wis.). MV522 is a conventional human NSC metastatic lung tumor cell line (U.S. Pat. No. 7,700,615 or 7,629,380). Animals were injected subcutaneously (SC) with approximately 1×10^7 MV522 cells harvested from tissue culture. When tumors grew to approximately 105 cubic millimeters (mm^3) in size (3 days following implantation), animals were pair-matched by tumor size into treatment and control groups; each treatment group contained eight mice. Animals were ear-tagged and followed individually throughout the experiment.
(§2) Initial doses were administered on Day 1 following pair-matching. The experiment was carried out as a tumor growth inhibition (TGI) and tumor growth delay (TGD) study. Group 1 endpoint was when tumor volume reached 1.2 cm^3 (TGI) and the treated groups endpoint was when each individual animal's tumor volume reached 1.5 cm^3 (TGD). […] To serve as negative controls, NPI-2358 vehicle and docetaxel vehicle were injected IP on a 2×WKLY×3 schedule and IV on a Q2D×3 schedule, respectively. Docetaxel was administered by intravenous (IV) injection via tail vein at 15 mg/kg once every other day for three treatments (Q2D×3) or at 25 mg/kg on a Q7D×3 schedule (every 7 day for three treatment). Docetaxel and docetaxel vehicle were administered two hours prior to NPI-2358 vehicle and NPI-2358, respectively, in Groups 7-9 and 12-14. For Groups 10, 11, 15, and 16, NPI-2358 was given two hours prior to docetaxel.
Mice were weighed and caliper tumor measurements taken. Tumor growth inhibition (TGI) values were calculated for each group containing treated animals using the formula below: […]
Animals experiencing complete tumor responses or animals experiencing technical or drug-related deaths were censored from final TGI calculations; however animals experiencing partial tumor responses were included in the final TGI calculations. […] TGI values for each treatment group are reported at study completion; these calculations are based on the final study day.
This arm of the study was ended on Day 74 at the sponsor's request. […] Upon TGD study completion, a Median Day of Sacrifice (MDS) was calculated for the control (C) and each treatment (T) group and used to determine tumor growth delay (T-C) using the following equations: MDS=Median [ΣIDS] T−C=MDSTreated−MDSControl
Where IDS (Individual Day of Sacrifice) is the day when each animal reached its tumor volume endpoint (1.5 cm^3); only animals reaching this endpoint were included in TGD calculations. Gross or net log10 cell kill for each treatment group was determined using the following equations: […]

[2] = Procedure: as §1, §2
Individual and group mean weights ±SD and percent weight change were recorded twice weekly until study completion beginning Day 1. Group weights on Day 42 and weight nadir values are reported.
Animals were observed twice weekly for general moribundity and daily for mortality.

[3] = G5: NPI-2358 3.75 mg/kg IP 2xWKLYx3

CC(C)(C)c1[nH]cnc1/C=c1\[nH]c(=O)/c(=C/c2ccccc2)[nH]c1=O [NPI-2358]
#CR (Day 25) [1, 3]: 0/0
#CR (TGD study) [1, 3]: 0/0
#LTS (long-term survivors) [1, 3]: 0
#PR (Day 25) [1, 3]: 0/0
#PR (TGD study) [1, 3]: 0/0
% TGI [1, 3]: 2%
Final tumor volume (Day 25) mean ± SEM [1, 3]: 1347 ± 82 mm^3
Log10 cell kill [1, 3]: 0.0
T-C (tumor growth delay) [1, 3]: 0
MDS day ± SD ([1]; G5: NPI-2358 3.75 mg/kg IP 2xWKLYx3, endpoint 1.5 cm^3): 29 ± 2 days
Tumor volume / tumor burden compared to vehicle control ([1]; single agent, Example 1): slight decrease in tumor volume
Final weight (Day 25) % change [2, 3]: +15%
Final weight (Day 25) mean ± SD [2, 3]: 23 ± 1 g
Weight nadir % change [2, 3]: 0%
Weight nadir day [2, 3]: 1
Animal weight loss ([2]; single agent groups, Example 1, given doses and schedule): No significant animal weight loss
